Target: Sigma non-opioid intracellular receptor 1 (Cavia porcellus) (UniProt Q60492)
Assay: In vitro binding affinity towards Sigma receptor type 1 was determined by measuring its ability to displace [3H](+)-pentazocine from guinea pig brain membrane

Sequence of Sigma non-opioid intracellular receptor 1 (Cavia porcellus) (Q60492 whole entry, looked up): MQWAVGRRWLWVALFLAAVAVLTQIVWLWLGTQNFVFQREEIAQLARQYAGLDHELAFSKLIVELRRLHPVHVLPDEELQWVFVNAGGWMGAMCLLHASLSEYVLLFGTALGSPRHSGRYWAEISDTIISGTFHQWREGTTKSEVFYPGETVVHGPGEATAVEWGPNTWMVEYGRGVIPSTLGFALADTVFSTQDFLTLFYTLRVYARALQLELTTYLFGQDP

Compound	Ki [nM]
CN1CCC=C(c2nsnc2SCCF)C1	21.7
CN1CCC=C(c2nsnc2SCCCF)C1	62.1

From BindingDB's records for doi:10.1021/jm00001a002 (National Institutes of Health, 1995)
